Reference: patent publication US20180072675A1, “ANTIMICROBIAL PYRIDINOHYDRAZIDE AND HYDRAZOMETHYLPYRIDINE-BASED AGENTS” (Board of Supervisors of Louisiana State University and …, priority 2015, published 2018)
In brackets after ≈: the same amount, converted by molar mass. Where two headings read alike, the source gives them in different places.

What was measured:
[1] = tested on: C. albicans clinical isolate 1 (TW1); test: MIC80 fungal growth inhibition, clinical isolate TW1; type: cell-based, Candida albicans; details: for MIC80: Candida albicans, read-out: MIC80 TW1
Description: (§1) The antifungal activity of the pyridinohydrazide and hydrazomethylpyridine derivatives described in the s were evaluated in vitro using Candida albicans (ATCC Accession No. 10231) and Candida glabrata (ATCC Accession No. 48435). In addition, the compounds were evaluated for activity against two previously-described clinical isolates of C. albicans known to have developed azole-resistance. These isolates were obtained over a two year period from a single AIDS patient and the development of the azole-resistance mechanisms have been extensively characterized (White T C. Antimicrob. Agents Chemother. (1997) 41: 1482-1487). MIC assays were performed on the clinical isolates 1 and 17 (annotated TW1 and TW17, respectively), where isolate 1 was used as an azole-susceptible control and isolate 17 was considered azole-resistant. All assays were done in accordance with NCCLS reference documents (Clinical Laboratory and Standards Institute. Reference method for Broth Dilution Antifungal Susceptibility Testing of Yeasts: Approved Standard. M27-A3 2010; 28). The results of these screenings are summarized in Tables 1-9 (Examples 20-27) as the minimum concentrations that inhibited more than 80% of fungal growth (MIC80) as compared to positive controls containing 1% DMSO. Assays were performed in HEPES-buffered RPMI-1640 media. All MIC screens used a visual scoring method as opposed to spectroscopic analysis, due to the altered absorbance spectra of many of the compounds.

[2] = tested on: Candida albicans (ATCC Accession No. 10231); test: MIC80 fungal growth inhibition, C. albicans ATCC 10231; type: cell-based; details: for MIC80: Candida albicans
Description: as §1

[3] = tested on: Candida glabrata (ATCC Accession No. 48435); test: MIC80 fungal growth inhibition, C. glabrata ATCC 48435; type: cell-based; details: for MIC80: Nakaseomyces glabratus
Description: as §1

Vero (kidney) cells = test: Mammalian cell toxicity, Promega CellTiter 96, kidney cells; type: cell-based; details: 24 h
Description: (§2) Cytotoxicity was determined using non-cancerous Vero cells (kidney-african green monkey) and liver cells (Hep-2G) in accordance with Promega CellTiter 96 Non-Radioactive Cell Proliferation Assay (cat # G4000). Compounds were diluted in media and all assays were done in triplicate. Average values are presented, with ±SD. Cells were incubated in the presence of the compounds for 24 h at 37° C. and 5% CO2. Tetrazolium dye solution was added to each well and allowed to incubate for 1-4 h. Solubilization/Stop solution was added and allowed to sit at room temperature for 1 h. Formazan product was scored spectrophotometrically with an automatic plate reader set at 570 nm. Positive control wells for cell death were briefly treated with 0.1% saponin, immediately prior to the addition of dye solution. Wells containing 1% DMSO and no drug were used as a negative control and the average absorbance at 570 nm were set to 100%. The percent of cells viable were calculated as a ratio between the average absorption at 570 nm of the drug containing wells/average absorption at 570 nm of the control (no drug). Ratios were multiplied by 100 to give the values as a percentage as expressed on the y-axis.
(§3) Cytotoxicity studies were performed in accordance with Promega CellTiter 96 Non-RadioactivCell Proliferation Assay (cat #G4000). All cytotoxicity studies used a negative control (wells of either kidney or liver cells containing 1% DMSO but lacking the analog), a positive control (wells of either kidney or liver cells treated with the known cytotoxic agent, saponin) and the serial dilutions of the novel analogs. All control (negative) wells were normalized to 100% viable cells to accurately show the percentage of either liver or kidney cells that remained alive and viable following either overnight incubation with the analogs or 5-minute treatment with 0.1% saponin.

Hep G2 (liver) cells = test: Mammalian cell toxicity, Promega CellTiter 96, liver cells; type: cell-based; details: 24 h
Description: as §2, §3

Candida spp. = test: MIC studies, statements pooled over several isolates; type: cell-based, Candida albicans, Candida glabrata; details: for antifungal activity (in words): overall over the isolates tested
Description: as §1

[4] = Azole-susceptible, >80% growth inhibition, visual scoring
[5] = ATCC10231, Azole-susceptible, >80% growth inhibition, visual scoring, read-out: MIC80 C. albicans ATCC No. 10231
[6] = ATCC48435, Azole-resistant, >80% growth inhibition, visual scoring, read-out: MIC80 C. glabrata ATCC No. 48435

SMILES	MIC80 [1, 4] [µg/mL]	MIC80 [2, 5] [µg/mL]	MIC80 [3, 6] [µg/mL]	cell toxicity (Vero (kidney) cells; 100× MIC)	cell toxicity (Vero (kidney) cells; through 10× MIC)	cell toxicity (Hep G2 (liver) cells; 100× MIC)	cell toxicity (Hep G2 (liver) cells; through 10× MIC)	antifungal activity (in words) (Candida spp.)	MIC80 [1] [µg/mL]	MIC80 ([2]; ATCC10231, read-out: MIC80 C. albicans ATCC No. 10231) [µg/mL]	MIC80 ([3]; ATCC48435, read-out: MIC80 C. glabrata ATCC No. 48435) [µg/mL]	cell toxicity (Vero (kidney) cells; 5 times the MIC)	cell toxicity (Hep G2 (liver) cells; 5× MIC)	MIC80 TW1 [1, 4] [µg/mL]	MIC80 C. albicans ATCC No. 10231 [2, 4] [µg/mL]	activity against azole-resistant isolates (in words) (Candida spp.; azole-resistant isolates)	MIC80 C. glabrata ATCC No. 48435 ([3]; Azole-resistant, >80% growth inhibition, visual scoring) [µg/mL]
C(=N\Nc1ccccc1)/c1cccnc1 [AR44]	16 (≈ 81.1 µM)	16 (≈ 81.1 µM)	16 (≈ 81.1 µM)	toxic	no cell toxicity	toxic	no cell toxicity	moderate antifungal activity	–	–	–	–	–	–	–	–	–
C(=N\Nc1ccccc1)/c1ccncc1 [AR48]	–	–	–	toxic	no cell toxicity	toxic	no cell toxicity	moderate antifungal activity	16 (≈ 81.1 µM)	31 (≈ 157 µM)	4 (≈ 20.3 µM)	–	–	–	–	–	–
O=C(N/N=C/c1cc(Br)ccc1O)c1ccc[n+]([O-])c1 [AR27]	8 (≈ 23.8 µM)	16 (≈ 47.6 µM)	4 (≈ 11.9 µM)	–	–	–	–	–	–	–	–	cytotoxic	cytotoxic	–	–	–	–
O=C(NN=Cc1cc([N+](=O)[O-])ccc1O)c1cccnc1 [AR12]	–	–	–	–	–	–	–	–	–	–	–	elevated toxicity	–	8 (≈ 27.9 µM)	4 (≈ 14 µM)	less active	–
Cc1ccc(O)c(/C=N/NC(=O)c2ccccn2)c1 [AR2, (E)-N′-(2-Hydroxy-5-methylbenzylidene)picolinohydrazide]	4 (≈ 15.7 µM)	2 (≈ 7.83 µM)	2 (≈ 7.83 µM)	minimal toxicity	–	minimal toxicity	–	–	–	–	–	–	–	–	–	–	–
O=C(NN=Cc1cc([N+](=O)[O-])ccc1O)c1ccncc1 [AR18]	–	–	–	minimal cytotoxicity	not toxic	minimal cytotoxicity	not toxic	most potent	–	–	–	–	–	8 (≈ 27.9 µM)	4 (≈ 14 µM)	–	31 (≈ 108 µM)
